Measurements as given in patent US12201633B2, “Compounds and methods for treatment of visceral pain” (Arena Pharmaceuticals, Inc., priority 2017, dated 2025).

Molecular target: T1, human CB2 receptor (Homo sapiens, UniProt P34972)
Assay: HTRF assay for direct cAMP measurement, CB2
Type: cell-based
Set-up: 93-0164 (CHO-K1 EA-Arrestin parental line); host or cells: CHO-K1 EA-Arrestin, clone #61
Details: not given

T1 sequence (P34972 whole entry): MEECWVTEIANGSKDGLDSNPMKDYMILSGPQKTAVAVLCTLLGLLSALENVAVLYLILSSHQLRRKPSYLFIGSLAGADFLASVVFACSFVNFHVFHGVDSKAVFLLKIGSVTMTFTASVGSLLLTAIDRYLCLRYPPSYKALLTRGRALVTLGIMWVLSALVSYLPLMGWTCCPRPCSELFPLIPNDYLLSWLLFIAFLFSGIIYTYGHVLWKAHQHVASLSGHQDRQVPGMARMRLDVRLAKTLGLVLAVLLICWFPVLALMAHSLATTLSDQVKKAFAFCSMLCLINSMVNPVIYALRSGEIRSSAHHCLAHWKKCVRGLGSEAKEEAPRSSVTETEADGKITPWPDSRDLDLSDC

| SMILES | EC50 [nM] |
| --- | --- |
| O=C(NC1(CO)CC1)c1nn(-c2ccc(Cl)cc2Cl)c2c1C[C@H]1C[C@@H]21 [Compound 174, (1aR,5aR)-2-(2,4-Dichloro-phenyl)-1a,2,5,5a-tetrahydro-1H-2,3-diaza-cyclopropa[a]pentalene-4-carboxylic acid (1-hydroxymethyl-cyclopropyl)-amide] | 38.2 |
| O=C(N[C@H]1c2ccccc2C[C@H]1O)c1nn(-c2c[n+]([O-])ccn2)c2c1C[C@@H]1C[C@H]21 [Compound 921, (1aS,5aS)-2-(4-Oxy-pyrazin-2-yl)-1a,2,5,5a-tetrahydro-1H-2,3-diaza-cyclopropa[a]pentalene-4-carboxylic acid ((1S,2R)-2-hydroxy-indan-1-yl)-amide] | 0.2 |
| O=C(NC1(c2ccccn2)CCC1)c1nn(-c2c[n+]([O-])ccn2)c2c1C[C@@H]1C[C@H]21 [Compound 700, (1aS,5aS)-2-(4-Oxy-pyrazin-2-yl)-1a,2,5,5a-tetrahydro-1H-2,3-diaza-cyclopropa[a]pentalene-4-carboxylic acid (1-pyridin-2-yl-cyclobutyl)-amide] | 3.14 |
| CC(C)(C)[C@@H](CO)NC(=O)c1nn(-c2cnccn2)c2c1C[C@@H]1C[C@H]21 [Compound 696, (1aS,5aS)-2-Pyrazin-2-yl-1a,2,5,5a-tetrahydro-1H-2,3-diaza-cyclopropa[a]pentalene-4-carboxylic acid ((S)-1-hydroxymethyl-2,2-dimethyl-propyl)-amide] | 6.89 |
| CC(C)[C@@H](CO)NC(=O)c1nn(-c2c[n+]([O-])ccn2)c2c1C[C@H]1C[C@@H]21 [Compound 690, (1aR,5aR)-2-(4-Oxy-pyrazin-2-yl)-1a,2,5,5a-tetrahydro-1H-2,3-diaza-cyclopropa[a]pentalene-4-carboxylic acid ((S)-1-hydroxymethyl-2-methyl-propyl)-amide] | 1.79 |
| CC(C)(CO)NC(=O)c1nn(-c2cnc(C#N)cn2)c2c1C[C@H]1C[C@@H]21 [Compound 264, (1aR,5aR)-2-(5-Cyano-pyrazin-2-yl)-1a,2,5,5a-tetrahydro-1H-2,3-diaza-cyclopropa[a]pentalene-4-carboxylic acid (2-hydroxy-1,1-dimethyl-ethyl)-amide] | 10.1 |
| CC(C)(CO)NC(=O)c1nn(-c2ccc(F)cc2F)c2c1C1CC1C2 (stereo not drawn) [Compound 515, 1-(2,4-Difluoro-phenyl)-3b,4,4a,5-tetrahydro-1H-cyclopropa[3,4]cyclopenta[1,2-c]pyrazole-3-carboxylic acid (2-hydroxy-1,1-dimethyl-ethyl)-amide] | 4.32 |

Molecular target: T1, human CB2 receptor
Assay: PathHunter β-arrestin assay, CB2
Details: not given

| SMILES | EC50 [nM] |
| --- | --- |
| CC(C)[C@H](N)C(=O)OC[C@@H](NC(=O)c1nn(-c2c[n+]([O-])ccn2)c2c1C[C@@H]1C[C@H]21)C(C)(C)C [Compound 848, (1aS,5aS)—(S)-2-Amino-3-methyl-butyric acid (S)-3,3-dimethyl-2-{[2-(4-oxy-pyrazin-2-yl)-1a,2,5,5a-tetrahydro-1H-2,3-diaza-cyclopropa[a]pentalene-4-carbonyl]-amino}-butyl ester] | 50 |
| CC(C)(C)[C@H](NC(=O)c1nn(-c2c[n+]([O-])ccn2)c2c1C[C@@H]1C[C@H]21)c1ccccn1 [Compound 767, (1aS,5aS)-2-(4-Oxy-pyrazin-2-yl)-1a,2,5,5a-tetrahydro-1H-2,3-diaza-cyclopropa[a]pentalene-4-carboxylic acid ((S)-2,2-dimethyl-1-pyridin-2-yl-propyl)-amide] | 66.6 |
| O=C(NC1(C(F)(F)F)CC1)c1nn(-c2cnccn2)c2c1C[C@@H]1C[C@H]21 [Compound 930, (1aS,5aS)-2-Pyrazin-2-yl-1a,2,5,5a-tetrahydro-1H-2,3-diaza-cyclopropa[a]pentalene-4-carboxylic acid (1-trifluoromethyl-cyclopropyl)-amide] | 17 |
| CC(C)(CO)NC(=O)c1nn(-c2cc(F)ccn2)c2c1C[C@H]1C[C@@H]21 [Compound 931, (1aR,5aR)-2-(4-Fluoro-pyridin-2-yl)-1a,2,5,5a-tetrahydro-1H-2,3-diaza-cyclopropa[a]pentalene-4-carboxylic acid (2-hydroxy-1,1-dimethyl-ethyl)-amide] | 20.8 |
| O=C(NC1(CO)CC1)c1nn(-c2ccc(Cl)cc2Cl)c2c1C[C@H]1C[C@@H]21 [Compound 174, (1aR,5aR)-2-(2,4-Dichloro-phenyl)-1a,2,5,5a-tetrahydro-1H-2,3-diaza-cyclopropa[a]pentalene-4-carboxylic acid (1-hydroxymethyl-cyclopropyl)-amide] | 167 |
| CC(C)[C@@H](C)NC(=O)c1nn(-c2c[n+]([O-])ccn2)c2c1C[C@@H]1C[C@H]21 [Compound 912, (1aS,5aS)-2-(4-Oxy-pyrazin-2-yl)-1a,2,5,5a-tetrahydro-1H-2,3-diaza-cyclopropa[a]pentalene-4-carboxylic acid ((R)-1,2-dimethyl-propyl)-amide] | 9.49 |
| O=C(N[C@H]1c2ccccc2C[C@H]1O)c1nn(-c2c[n+]([O-])ccn2)c2c1C[C@@H]1C[C@H]21 [Compound 921, (1aS,5aS)-2-(4-Oxy-pyrazin-2-yl)-1a,2,5,5a-tetrahydro-1H-2,3-diaza-cyclopropa[a]pentalene-4-carboxylic acid ((1S,2R)-2-hydroxy-indan-1-yl)-amide] | 2.59 |
| O=C(NC1(c2ccccn2)CCC1)c1nn(-c2c[n+]([O-])ccn2)c2c1C[C@@H]1C[C@H]21 [Compound 700, (1aS,5aS)-2-(4-Oxy-pyrazin-2-yl)-1a,2,5,5a-tetrahydro-1H-2,3-diaza-cyclopropa[a]pentalene-4-carboxylic acid (1-pyridin-2-yl-cyclobutyl)-amide] | 31.5 |
| CC(C)(C)[C@@H](COP(=O)(O)O)NC(=O)c1nn(-c2c[n+]([O-])ccn2)c2c1C[C@H]1C[C@@H]21 [Compound 703, Phosphoric acid mono-((S)-3,3-dimethyl-2-{[(1aR,5aR)-2-(4-oxy-pyrazin-2-yl)-1a,2,5,5a-tetrahydro-1H-2,3-diaza-cyclopropa[a]pentalene-4-carbonyl]-amino}-butyl) ester] | 603 |
| CC(C)(C)NNC(=O)c1nn(-c2c[n+]([O-])ccn2)c2c1C[C@@H]1C[C@H]21 [Compound 902, (1aS,5aS)-2-(4-Oxy-pyrazin-2-yl)-1a,2,5,5a-tetrahydro-1H-2,3-diaza-cyclopropa[a]pentalene-4-carboxylic acid N′-tert-butyl-hydrazide] | 77.5 |
| CC(C)(C)[C@@H](CO)NC(=O)c1nn(-c2cnccn2)c2c1C[C@@H]1C[C@H]21 [Compound 696, (1aS,5aS)-2-Pyrazin-2-yl-1a,2,5,5a-tetrahydro-1H-2,3-diaza-cyclopropa[a]pentalene-4-carboxylic acid ((S)-1-hydroxymethyl-2,2-dimethyl-propyl)-amide] | 49.4 |
| CC(C)[C@@H](CO)NC(=O)c1nn(-c2c[n+]([O-])ccn2)c2c1C[C@H]1C[C@@H]21 [Compound 690, (1aR,5aR)-2-(4-Oxy-pyrazin-2-yl)-1a,2,5,5a-tetrahydro-1H-2,3-diaza-cyclopropa[a]pentalene-4-carboxylic acid ((S)-1-hydroxymethyl-2-methyl-propyl)-amide] | 31 |
| CC(C)[C@@H](C)NC(=O)c1nn(-c2c[n+]([O-])ccn2)c2c1C[C@H]1C[C@@H]21 [Compound 828, (1aR,5aR)-2-(4-Oxy-pyrazin-2-yl)-1a,2,5,5a-tetrahydro-1H-2,3-diaza-cyclopropa[a]pentalene-4-carboxylic acid ((R)-1,2-dimethyl-propyl)-amide] | 4.14 |
| CNC(=O)[C@@H](NC(=O)c1nn(-c2c[n+]([O-])ccn2)c2c1C[C@H]1C[C@@H]21)c1ccccc1 [Compound 722, (1aR,5aR)-2-(4-Oxy-pyrazin-2-yl)-1a,2,5,5a-tetrahydro-1H-2,3-diaza-cyclopropa[a]pentalene-4-carboxylic acid ((S)-methylcarbamoyl-phenyl-methyl)-amide] | 34 |
| O=C(N[C@H]1c2ccccc2C[C@@H]1O)c1nn(-c2c[n+]([O-])ccn2)c2c1C[C@@H]1C[C@H]21 [Compound 920, (1aS,5aS)-2-(4-Oxy-pyrazin-2-yl)-1a,2,5,5a-tetrahydro-1H-2,3-diaza-cyclopropa[a]pentalene-4-carboxylic acid ((1S,2S)-2-hydroxy-indan-1-yl)-amide] | 4.6 |
| CC(C)(C)[C@@H](NC(=O)c1nn(-c2c[n+]([O-])ccn2)c2c1C[C@@H]1C[C@H]21)c1ccccn1 [Compound 766, (1aS,5aS)-2-(4-Oxy-pyrazin-2-yl)-1a,2,5,5a-tetrahydro-1H-2,3-diaza-cyclopropa[a]pentalene-4-carboxylic acid ((R)-2,2-dimethyl-1-pyridin-2-yl-propyl)-amide] | 4.57 |
| CC(C)(COP(=O)(O)O)NC(=O)c1nn(-c2cc(C#N)ccn2)c2c1C[C@H]1C[C@@H]21 [Compound 646, Phosphoric acid mono-(2-{[(1aR,5aR)-2-(4-cyano-pyridin-2-yl)-1a,2,5,5a-tetrahydro-1H-2,3-diaza-cyclopropa[a]pentalene-4-carbonyl]-amino}-2-methyl-propyl) ester] | 925 |
| COC(=O)C(NC(=O)c1nn(-c2c[n+]([O-])ccn2)c2c1C[C@H]1C[C@@H]21)c1ccccn1 (stereo partly drawn) [Compound 711, {[(1aR,5aR)-2-(4-Oxy-pyrazin-2-yl)-1a,2,5,5a-tetrahydro-1H-2,3-diaza-cyclopropa[a]pentalene-4-carbonyl]-amino}-pyridin-2-yl-acetic acid methyl ester] | 28.1 |
| CC(C)[C@@H](CO)NC(=O)c1nn(-c2c[n+]([O-])ccn2)c2c1C[C@@H]1C[C@H]21 [Compound 896, (1aS,5aS)-2-(4-Oxy-pyrazin-2-yl)-1a,2,5,5a-tetrahydro-1H-2,3-diaza-cyclopropa[a]pentalene-4-carboxylic acid ((S)-1-hydroxymethyl-2-methyl-propyl)-amide] | 43.5 |
| CC(C)(C)[C@@H](COP(=O)(O)O)NC(=O)c1nn(-c2cnccn2)c2c1C[C@H]1C[C@@H]21 [Compound 683, Phosphoric acid mono-{(S)-3,3-dimethyl-2-[((1aR,5aR)-2-pyrazin-2-yl-1a,2,5,5a-tetrahydro-1H-2,3-diaza-cyclopropa[a]pentalene-4-carbonyl)-amino]-butyl} ester] | 3000 |
| CC(C)(CF)NC(=O)c1nn(-c2c[n+]([O-])ccn2)c2c1C[C@@H]1C[C@H]21 [Compound 904, (1aS,5aS)-2-(4-Oxy-pyrazin-2-yl)-1a,2,5,5a-tetrahydro-1H-2,3-diaza-cyclopropa[a]pentalene-4-carboxylic acid (2-fluoro-1,1-dimethyl-ethyl)-amide] | 31.4 |

Same assay, conditions: read-out: EC50 hCB2; β-arrestin, CHO-K1 cells; Table B-2

| SMILES | EC50 [nM] |
| --- | --- |
| O=C(N[C@H](CO)c1ccccc1)c1nn(-c2c[n+]([O-])ccn2)c2c1C[C@@H]1C[C@H]21 [Compound 913, (1aS,5aS)-2-(4-Oxy-pyrazin-2-yl)-1a,2,5,5a-tetrahydro-1H-2,3-diaza-cyclopropa[a]pentalene-4-carboxylic acid ((S)-2-hydroxy-1-phenyl-ethyl)-amide] | 105 |
| O=C(NC1(C(F)(F)F)CC1)c1nn(-c2c[n+]([O-])ccn2)c2c1C[C@@H]1C[C@H]21 [Compound 764, (1aS,5aS)-2-(4-Oxy-pyrazin-2-yl)-1a,2,5,5a-tetrahydro-1H-2,3-diaza-cyclopropa[a]pentalene-4-carboxylic acid (1-trifluoromethyl-cyclopropyl)-amide] | 5.92 |
